The values below come from patent US12286423B2, “Antiviral 1,3-di-oxo-indene compounds” (Novartis AG, priority 2020, dated 2025).

The conditions of data set [1]: cited from earlier work.
Data set [2] deals with 48 rhinovirus types and coxsackievirus A21, B3, enterovirus 70 and echovirus 11. Conditions: cited from earlier work.
Data set [3] deals with rhinoviruses and enteroviruses. Conditions: cited from earlier work.
The conditions of data set [4]: cited from earlier work. The source holds these as a separate data set.
The subject of another data set is C15_C3 REPLICON
Kind of data set: C15_C3 replicon assay. The class given is cell-based.

A short description of data set [5]: Cytotoxicity (CC50) in mock-infected cells, MTT assay. The class given is cell-based. Conditions: human, HeLa cells (mock-infected), 50% cytotoxic concentration, read-out: CYTOTOX (CC50 μM). The method, then:
(§1) For HeLa cells, the drugs were measured for EC50 (50% maximal effective concentration), which is the concentration of a drug inducing a response halfway between the baseline and maximum, using an MTT assay. With regard to RD and MRC-5 cells, CPE was determined using FDA (Fluorescein diacetate) or MTT. In order to determine the effect of drug toxicity on efficacy results, at the time of inoculation with the virus, mock-infection was also included. A virus-free medium was added to a cell culture, which was then subjected to the same treatment as the mock-infected cells inoculated with the virus. That is, the medium was removed after one hour of incubation, and dilutions of drugs in the medium were added once more. Following incubation for 2-3 days, the cells were observed under a microscope and the drugs were determined for CC50 (50% cytotoxic concentration) at which 50% of the cells were killed, using an MTT assay in which counts of viable cells in mock-infected wells containing drugs were compared to those of viable cells in control wells containing no drugs. In an FDA hydrolysis assay, FDA was added to each well after removal of the medium, and incubated for 20-30 min before fluorescence intensity was measured using a spectrofluorometer to determine CPE in the same manner as in MTT.
That is, the survival rate (% survival) of mock-infected cells for cytotoxicity measurement was calculated using the Mathematical Formula 1 below: Cell Drug=Survival by [A(Drug)−A(Background solution)/A(Cell control)−A(Background×100% Solution)]
While 100% cell survival means no cytotoxicity of the drug, the highest cytotoxicity is reflected by 0% cell survival. The 50% cytotoxic concentration was defined as the concentration required to reduce the cell number by 50%. This concentration of the drug is represented as CC50. Higher values mean lower cytotoxicity. […]
In Mathematical Formulae 3 and 4 above, • OD (CC) represents the OD of the background cell culture that is neither induced by a virus nor treated by chemical, • OD (VC) represents the OD of the control cell culture that is induced by a virus but not treated by chemical, • OD (Virus+Compound) represents the OD of the cell culture infected by a virus that has been treated with a concentrated compound, • OD (Compound) represents the OD of the cell culture that has been treated with a concentrated compound only, and • OD (Blank) represents the OD of the well to which only the cell culture has been added.
The effective concentration (EC50) represents the concentration of a drug at which 50% of cells are allowed to survive by CPE of an induced virus, and the cytotoxicity concentration (CC50) represents the concentration of a drug at which a compound has killed 50% of cells, and they were calculated by the logarithmic interpolation.
For orientation: Formazan colour is commonly taken as a measure of viable cells.

The next data set has as its system HRV A16. In words: HRV A16 CPE inhibition assay. Format: cell-based. Conditions: Human rhinovirus sp.; HRV A16, cytopathic effect inhibition. The method, then: (§2) Bioactivity of the Compounds of the Invention was Determined Using the Following Methods. Determination of Drug Efficacy Against Picornaviruses Using Cytopathic Effect (CPE) Inhibition Assay
(§3) In the assay, HeLa (human cervical cancer cells), MRC-5 (human fetal lung fibroblast cells), and RD cells (derived from human rhabdomyosarcoma) were employed. For comparison, ribavirin (Riv), Pleconaril (pleco), and […] (BTA) were used as controls. Reagents were dissolved at a concentration of 10-40 mg/ml in 100% dimethyl sulfoxide (DMSO). Water-soluble reagents were dissolved in PBS (−) solution and stored at −20° C. On the day of the experiment, they were used in 3 fold to 5 fold concentrations in such a manner that the concentration of dimethyl sulfoxide in each well was between 0.5% and 1%.
(§4) Pharmaceutical efficacy was determined using a virus-induced cytopathic effect (CPE) inhibition assay. In this regard, after cells suitable for viruses were grown in 96-well plates, dilutions of viruses in DME supplemented with 2% FBS (DME/2% FBS) or MEM supplemented with 2% FBS (MEM/2% FBS) were inoculated in an amount of […] with a concentration corresponding to 100 CCID50 (50% cell culture infective dose) into each well of the plates, and incubated for 30 min-1 hr at 33° C. or 37° C. to allow the viruses to adsorb onto the cells. The culture medium was removed before aliquots of drug dilutions with various concentrations were added in an amount of 100 μl to each well. While HRV (human rhinovirus) was grown at 33° C., the other viruses were incubated in a 37° C. CO2 incubator for 2-3 days. Alternatively, the cells were cultured for 2-3 days without removal of the medium after they were added with 50 μl of each drug dilution having a 2-fold higher concentration and then with 50 μl of the virus dilution. Viruses were incubated in host HeLa cells at 37° C. for 2-3 days in DME/2% or MEM/2% FBS.
as §1
(§5) In addition, antiviral effects can be calculated using Mathematical Formula 2 below: Antiviral Effect=[A(Drug/Virus)−A(Virus Control)/A(Cell control)−A(Virus Control)]
(§6) If the survival rate is 100%, its antiviral effect is 100% whereas if the survival rate is 0%, its antiviral effect is none. […]
(§7) Specifically, cells grown to confluence in 96-well plates were infected with 100 50% cell culture infected doses (CCID50) of virus. After an adsorption period of 2 hrs at 37° C., the virus was removed and serial dilutions of the compounds were added. […] After removal of the medium, 90 μl of a culture medium and 10 μl of MTS-phenazine methosulfate (Promega, Leiden, The Netherlands) were added to each well. […]

The test system of a further data set is HRV B14. In words: HRV B14 CPE inhibition assay. Format: cell-based. Conditions: Human rhinovirus sp.; HRV B14, cytopathic effect inhibition. The method, then:
as §2, §3, §4, §1, §5, §6, §7
For orientation: Protection from cytopathic effect is a common read-out in antiviral testing.

The subject of another data set is HRV A1B. Kind of data set: HRV A1B CPE inhibition assay. The class given is cell-based. Conditions: Human rhinovirus sp., cytopathic effect inhibition, read-out: HRV A1B_CPE (EC50 μM). The method, then:
as §2, §3, §4, §1, §5, §6, §7

In another data set the test system is HRV A29. Kind of data set: HRV A29 CPE inhibition assay. The class given is cell-based. Conditions: Human rhinovirus sp.; HRV A29, cytopathic effect inhibition. As to the method:
as §2, §3, §4, §1, §5, §6, §7

On to `CC(C)S(=O)(=O)n1c(N)nc2ccc(/C(=N/O)c3ccccc3)cc21` [Enviroxime], for which, in [1], the “pharmacokinetics in clinical studies” value was “bad pharmacokinetics” and the “therapeutic effects in clinical studies” value was “insignificant or few therapeutic effects”.

As to `CCOC(=O)/C=C/[C@H](C[C@@H]1CCNC1=O)NC(=O)[C@@H](CC(=O)[C@@H](NC(=O)c1cc(C)on1)C(C)C)Cc1ccc(F)cc1` [AG 7088], in [2], the “concentration range of effect in the cell culture” value is reported as “nanomolar concentration range”.

With `Cc1cc(CCCCCCCOc2ccc(C3=NCCO3)cc2)on1` [disoxaril], in data set [3], the “antiviral effects in the cell culture” value is reported as “very good antiviral effects”. In addition, in data set [4] (in vivo), the bioavailability entry is “low bioavailability”; the metabolization and excretion entry was “rapid metabolization and excretion”.

What is called EC50 is the concentration giving half of the maximal effect. What is called CC50 is the concentration that lowers cell viability or growth by half. As for `C[C@@H](c1ccc2c(c1)O[C@]1(O)c3cccc(N)c3C(=O)[C@]21NC(=O)c1cccc(O)n1)C1CC1` [Example 8, N-((4bR,9bR)-1-amino-7-((R)-1-cyclopropylethyl)-4b-hydroxy-10-oxo-4b,10-dihydro-9bH-indeno[1,2-b]benzofuran-9b-yl)-6-hydroxypicolinamide], the half-maximal effective concentration (EC50) with C15_C3 REPLICON is 5.33 µM; with HRV A16, 0.068 µM; in the data set with HRV B14, 0.016 µM; in the data set with HRV A1B, 0.031 µM; in the data set with HRV A29, 0.035 µM. In addition, the cytotoxic concentration (CC50) in [5] amounted to 35 µM.

Consider `Cc1cc(S(C)(=O)=O)[nH]c1C(=O)NC12C(=O)c3c(N)cccc3C1(O)Oc1cc(C3C[C@H]3C)ccc12` (stereo in doubt) [Example 21, N-(1-amino-4b-hydroxy-7-((1S,2R)-2-methylcyclopropyl)-10-oxo-4b,10-dihydro-9bH-indeno[1,2-b]benzofuran-9b-yl)-3-methyl-5-(methylsulfonyl)-1H-pyrrole-2-carboxamide], for which the EC50 in the data set on C15_C3 REPLICON stood at 2.91 µM; with HRV A16 it was 0.026 µM; in the data set with HRV B14, 0.016 µM; in the data set on HRV A1B, 0.07 µM; in the data set with HRV A29, 0.074 µM. In data set [5], the CC50 turned out to be 37.3 µM.

With `Cc1cc(S(=O)(=O)N2CCN(C)CC2)[nH]c1C(=O)NC12C(=O)c3c(N)cccc3C1(O)Oc1cc(C(C)C)ccc12` (centres unmarked) [Example 13, N-(1-amino-4b-hydroxy-7-isopropyl-10-oxo-4b,10-dihydro-9bH-indeno[1,2-b]benzofuran-9b-yl)-3-methyl-5-((4-methylpiperazin-1-yl)sulfonyl)-1H-pyrrole-2-carboxamide], the half-maximal effective concentration (EC50) was determined as 0.682 µM with C15_C3 REPLICON; 0.027 µM in the data set on HRV A16; 0.016 µM in the data set with HRV B14; 0.016 µM in the data set on HRV A1B; 0.05 µM in the data set on HRV A29. Further, in data set [5], the CC50 is 32.1 µM.

With `Cc1cc(S(=O)(=O)N2CCN(C)CC2)[nH]c1C(=O)N[C@]12C(=O)c3c(N)cccc3[C@@]1(O)Oc1cc([C@H]3C[C@@H]3C)ccc12` [Example 14, N-((4bR,9bR)-1-amino-4b-hydroxy-7-((1S,2S)-2-methylcyclopropyl)-10-oxo-4b,10-dihydro-9bH-indeno[1,2-b]benzofuran-9b-yl)-3-methyl-5-((4-methylpiperazin-1-yl)sulfonyl)-1H-pyrrole-2-carboxamide], the EC50 in the data set on C15_C3 REPLICON was 0.516 µM; in the data set on HRV A16, 0.023 µM; in the data set with HRV B14, 0.016 µM; in the data set with HRV A1B, 0.016 µM; with HRV A29 it was 0.03 µM. Moreover, in data set [5], the CC50 was determined as 21.9 µM.

For the molecule `C[C@H](c1ccc2c(c1)O[C@]1(O)c3cccc(N)c3C(=O)[C@]21NC(=O)c1cccc(O)n1)C1CC1` [Example 3, N-((4bR,9bR)-1-amino-7-((S)-1-cyclopropylethyl)-4b-hydroxy-10-oxo-4b,10-dihydro-9bH-indeno[1,2-b]benzofuran-9b-yl)-6-hydroxypicolinamide], the concentration for a half-maximal effect (EC50) is 4.81 µM in the data set on C15_C3 REPLICON; 0.057 µM with HRV A16; 0.016 µM with HRV B14; 0.033 µM in the data set on HRV A1B; 0.02 µM with HRV A29. In addition, the CC50 in data set [5] came to 32.3 µM.

As to `Cc1cc(CCCOc2c(C)cc(-c3noc(C(F)(F)F)n3)cc2C)on1` [Pleconaril], in data set [4] (oral), the oral bioavailability entry is “very good oral bioavailability”.

On to `Cc1c(S(C)(=O)=O)c[nH]c1C(=O)N[C@]12C(=O)c3c(N)cccc3[C@@]1(O)Oc1cc([C@H]3C[C@@H]3C)ccc12` [Example 28, N-((4bR,9bR)-1-amino-4b-hydroxy-7-((1S,2S)-2-methylcyclopropyl)-10-oxo-4b,10-dihydro-9bH-indeno[1,2-b]benzofuran-9b-yl)-3-methyl-4-(methylsulfonyl)-1H-pyrrole-2-carboxamide], for which the EC50 in the data set with C15_C3 REPLICON turned out to be 1.85 µM; in the data set on HRV A16, 0.16 µM; in the data set on HRV B14, 0.016 µM; in the data set on HRV A1B, 0.037 µM; with HRV A29, 0.045 µM. Also, the CC50 in data set [5] is 19.8 µM.

For the molecule `Cc1cc(S(=O)(=O)N2CCN(C)CC2)[nH]c1C(=O)NC12C(=O)c3c(N)cccc3C1(O)Oc1cc([C@H]3C[C@H]3C)ccc12` (stereo partly drawn) [Example 24, N-(1-amino-4b-hydroxy-7-((1S,2R)-2-methylcyclopropyl)-10-oxo-4b,10-dihydro-9bH-indeno[1,2-b]benzofuran-9b-yl)-3-methyl-5-((4-methylpiperazin-1-yl)sulfonyl)-1H-pyrrole-2-carboxamide], the EC50 came out at 0.34 µM in the data set with C15_C3 REPLICON; 0.039 µM in the data set on HRV A16; 0.016 µM in the data set on HRV B14; 0.016 µM in the data set on HRV A1B; 0.037 µM in the data set with HRV A29. Besides, the CC50 in data set [5] worked out at 28.4 µM.

In the case of `C[C@H](c1ccc2c(c1)O[C@]1(O)c3cccc(N)c3C(=O)[C@]21NC(=O)CN1CCC1)C1CC1` [Example 5, N-((4bR,9bR)-1-amino-7-((S)-1-cyclopropylethyl)-4b-hydroxy-10-oxo-4b,10-dihydro-9bH-indeno[1,2-b]benzofuran-9b-yl)-2-(azetidin-1-yl)acetamide], the EC50 came out at 1.35 µM in the data set on C15_C3 REPLICON; 0.072 µM in the data set on HRV A16; 0.016 µM in the data set on HRV B14; 0.036 µM in the data set on HRV A1B; 0.039 µM in the data set with HRV A29. For the same molecule, in data set [5], the CC50 turned out to be 19.2 µM.

On to `CCOC(=O)c1ccc(OCCC2CCN(c3ccc(C)nn3)CC2)cc1` [pirodavir], for which, in data set [3], the “antiviral effects in the cell culture” value is recorded as “very good antiviral effects”.
